Test results published in US5395841A, “4-benzylpiperidines for treating phychosis” (Ferrer Internacional, S.A., priority 1992, dated 1995).
Where a name gives a salt, the structure may show the parent alone.

These molecules were tested against sigma-receptor (Cavia porcellus, UniProt Q60492) (assay: Sigma-receptor binding ([3H]3-PPP displacement, membranes of guinea pig total brain)). Conditions: 2 nM (+)[3H]3-PPP, guinea pig total brain membrane, 90 min at 25° C., pH 8.5 TRIS.HCl, eleven concentrations; read-out: IC50 (inhibitory concentration 50%).
sigma-receptor, sequence (Q60492 whole entry): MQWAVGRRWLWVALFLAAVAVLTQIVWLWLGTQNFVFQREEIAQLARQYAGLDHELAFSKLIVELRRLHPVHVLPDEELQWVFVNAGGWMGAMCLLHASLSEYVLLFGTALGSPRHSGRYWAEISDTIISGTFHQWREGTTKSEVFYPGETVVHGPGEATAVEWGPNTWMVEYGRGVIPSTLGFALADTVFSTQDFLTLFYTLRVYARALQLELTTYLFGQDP

SMILES | IC50 [nM]
OC(CCCN1CCC(Cc2ccccc2)CC1)c1ccc(F)cc1 (centres unmarked) [Example 6, 4-Benzyl-1-(4-hydroxi-4-p-fluorophenyl)butylpiperidine hydrochloride] | 1.49
OC(CCCN1CCC(Cc2ccc(F)cc2)CC1)c1ccc(F)cc1 (centres unmarked) [Example 7, 4-(p-Fluorobenzyl)-1-(4-fluorophenyl-4-hydroxy)butylpiperidine hydrochloride] | 8.8
Fc1ccc(CC2CCN(CCCOc3ccc(F)cc3)CC2)cc1 [Example 8, 4-(p-Fluorobenzyl)-1-[3-(p-fluorophenoxy)propyl]piperidine dibenzoate] | 4.5
Fc1ccc(CC2CCN(CCCOc3ccc(F)cc3)CC2)cc1 [Example 11, 4-(p-Fluorobenzyl)-1-[3-(p-fluorophenoxy)propyl]piperidine hydrochloride] | 4.2
O=C1CC2(CCCC2)CC(=O)N1CCCCN1CCC(Cc2ccc(F)cc2)CC1 [Example 10, 8-[4-[4-(p-Fluorobenzyl)-1-piperidinyl]butyl]-8-azaspiro[4,5] decane-7,9-dione hydrochloride] | 1.89
O=C(CCCN1CCC(Cc2ccc(F)cc2)CC1)c1ccc(F)cc1 [Example 5, 4-p-Fluorobenzyl-1-(4-p-fluorophenyl-4-oxo)butylpiperidine hydrochloride] | 2.4
CCCN1CCC(Cc2ccc(F)cc2)CC1 [Example 1, 4-p-Fluorobenzyl-1-propylpiperidine hydrochloride] | 2.95
Fc1ccc(CC2CCN(CCCC(c3ccc(F)cc3)c3ccc(F)cc3)CC2)cc1 [Example 9, 4-(p-Fluorobenzyl)-1-[4,4-bis(p-fluorophenyl)butyl]piperidine tribenzoate] | 72
